Results on eight molecules are retold here after patent publication US8846656B2, “Tetrahydropyrido-pyridine and tetrahydropyrido-pyrimidine compounds and use thereof as C5a receptor modulators” (Novartis AG, priority 2011, dated 2014).

The solubility (thermodynamic) is solubility found after equilibrating the solid with the medium. Broadly, the IC50 is the concentration at which inhibition is half-maximal.

Structures are written as SMILES.

The nature of data set [1]: physchem. The note with it: thermodynamic from solid, 24 hr Equilibrium Solubility.
In data set [2] the target is human C5aR (Homo sapiens (Human), UniProt P21730). Put plainly: FLIPR assay: inhibition of C5a-mediated calcium mobilization. In kind it is cell-based. To be noted: stable cell line over expressing human C5aR & Gα15, human C5a at EC50 (0.1-0.25 nM). In outline: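 Stable cell line overexpressing human C5aR with Gα15, measured on FLIPR Tetra. Cells loaded 1 h at 37° C with calcium 5 dye and 2.5 mM probenecid in HBSS/20 mM HEPES/0.1% BSA. Compounds preincubated 30 minutes at room temperature in 1% DMSO before C5a.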
Chain of human C5aR (P21730 whole entry): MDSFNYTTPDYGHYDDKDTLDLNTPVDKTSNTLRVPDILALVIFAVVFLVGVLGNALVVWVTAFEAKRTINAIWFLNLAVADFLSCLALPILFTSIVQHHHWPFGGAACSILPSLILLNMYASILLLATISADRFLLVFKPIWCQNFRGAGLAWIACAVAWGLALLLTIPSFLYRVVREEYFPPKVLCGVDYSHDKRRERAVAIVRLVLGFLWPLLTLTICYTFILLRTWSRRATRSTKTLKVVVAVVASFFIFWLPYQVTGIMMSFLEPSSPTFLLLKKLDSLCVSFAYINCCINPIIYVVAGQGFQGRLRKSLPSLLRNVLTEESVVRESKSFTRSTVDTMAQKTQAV
A general note: Calcium assays in cells follow changes in intracellular calcium, usually with a dye or a luminescent sensor.

In data set [3] the test system is CD11b. As to the kind of experiment: Human whole blood CD11b up-regulation assay. In kind it is cell-based. To be noted: Homo sapiens, 2 nM human C5a, CD15+ granulocytes, read-out: hCD11b IC50. Put shortly:
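Heparinized human whole blood (used within 2 h) preincubated 10 min at room temperature with compound in 1% DMSO, then stimulated with 2 nM human C5a for 15 min. After anti-CD15/anti-CD11b staining on ice and RBC lysis, CD11b median fluorescence on 10,000 CD15+ granulocytes measured by flow cytometry.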

For `CO[C@H]1C[C@H]2CC[C@@H](C1)N2c1nc(-c2c(C)ccc3[nH]nc(C)c23)nc2c1CN(c1cc(C(C)C)ccc1C)CC2` [Example 19-F, 2-(3,5-Dimethyl-1H-indazol-4-yl)-6-(5-isopropyl-2-methylphenyl)-4-((3-endo)-3-methoxy-8-azabicyclo[3.2.1]octan-8-yl)-5,6,7,8-tetrahydropyrido[4,3-d]pyrimidine], the solubility (thermodynamic) at 24 h in data set [1] (oil or lipid) is > 26500 µg/mL; in data set [1] (pH 1, simulated gastric fluid) it was < 0.5 µg/mL; in data set [1] (pH 4.5, aqueous buffer), < 0.5 µg/mL; in data set [1] (pH 5.5, fessif), < 0.5 µg/mL; in data set [1] (pH 6.5, fassif) it was < 0.5 µg/mL; in data set [1] (pH 6.8, aqueous buffer), < 0.5 µg/mL. Besides, the thermodynamic solubility at 24 h in data set [1] (simulated gastric fluid) and in data set [1] (water) was < 0.5 µg/mL in each case. Also, the IC50 was 0.004 µM in data set [2] and 0.013 µM in data set [3].

Consider `Cc1ccc2[nH]nc(C)c2c1-c1nc2c(c(N3CC[C@@H](N(C)C)C3)n1)CN(c1c(Cl)c(C3CC3)nn1C)CC2` [Example 68-C, (R)-1-(6-(4-chloro-3-cyclopropyl-1-methyl-1H-pyrazol-5-yll)-2-(3,5-dimethyl-1H-indazol-4-yl)-5,6,7,8-tetrahydropyrido[4,3-d]pyrimidin-4-yl)-N,N-dimethylpyrrolidin-3-amine], for which the IC50 in data set [2] worked out at 0.016 µM; in data set [3] it was 0.069 µM.

Consider `CO[C@H]1CCN(c2nc(-c3c(C)ccc4[nH]nc(C)c34)nc3c2CN(c2cc(C(C)C)ccc2C)CC3)CC1(C)C` [Example 19-AI, (S)-2-(3,5-dimethyl-1H-indazol-4-yl)-6-(5-isopropyl-2-methylphenyl)-4-(4-methoxy-3,3-dimethylpiperidin-1-yl)-5,6,7,8-tetrahydropyrido[4,3-d]pyrimidine], for which the IC50 in data set [2] is 0.002 µM; in data set [3] it was 0.007 µM.

For the molecule `CO[C@@H]1CCN(c2nc(-c3c(C)ccc4[nH]nc(C)c34)nc3c2CN(c2cc(C(F)(F)F)ccc2C)CC3)CC1(C)C` [Example 21-AJ, (R)-2-(3,5-dimethyl-1H-indazol-4-yl)-4-(4-methoxy-3,3-dimethylpiperidin-1-yl)-6-(2-methyl-5-(trifluoromethyl)phenyl)-5,6,7,8-tetrahydropyrido[4,3-d]pyrimidine], the IC50 in data set [2] came out at 0.006 µM; in data set [3] it was 0.015 µM.

On to `CCO[C@@H]1CCN(c2nc(-c3c(C)ccc4[nH]nc(C)c34)nc3c2CN(c2cc(C(C)C)ccc2C)CC3)[C@H](C)C1` [Example 21-AL, 2-(3,5-dimethyl-1H-indazol-4-yl)-4-((2R,4R)-4-ethoxy-2-methylpiperidin-1-yl)-6-(5-isopropyl-2-methylphenyl)-5,6,7,8-tetrahydropyrido[4,3-d]pyrimidine], for which the IC50 in data set [2] turned out to be 0.001 µM; in data set [3], 0.019 µM.

Take `CO[C@@H]1CCN(c2nc(-c3c(C)ccc4[nH]nc(C)c34)nc3c2CN(c2cc(C4CC4)nn2C)CC3)CC1(C)C` [Example 23-I, (R)-6-(3-cyclopropyl-1-methyl-1H-pyrazol-5-yl)-2-(3,5-dimethyl-1H-indazol-4-yl)-4-(4-methoxy-3,3-dimethylpiperidin-1-yl)-5,6,7,8-tetrahydropyrido[4,3-d]pyrimidine]: the concentration for half-maximal inhibition (IC50) in data set [2] came out at 0.0005 µM; in data set [3], 0.022 µM.

Regarding `CO[C@H]1CCN(c2nc(-c3cccc4[nH]cc(C)c34)nc3c2CN(c2cc(C(C)C)ccc2C)CC3)CC1(C)C` [Example 17-G, (S)-6-(5-Isopropyl-2-methylphenyl)-4-(4-methoxy-3,3-dimethylpiperidin-1-yl)-2-(3-methyl-1H-indol-4-yl)-5,6,7,8-tetrahydropyrido[4,3-d]pyrimidine], the IC50 in data set [2] came to 0.004 µM; in data set [3], 0.114 µM.

Turning to `Cc1ccc(C(C)C)cc1N1CCc2nc(-c3c(C)ccc4[nH]nc(C)c34)nc(OCCN3CCOCC3)c2C1` [Example 63-I, 4-(2-((2-(3,5-dimethyl-1H-indazol-4-yl)-6-(5-isopropyl-2-methylphenyl)-5,6,7,8-tetrahydropyrido[4,3-d]pyrimidin-4-yl)oxy)ethyl)morpholine], the IC50 in data set [2] stood at 0.032 µM; in data set [3], 0.06 µM.
